The target of this assay is T1, Androgen Receptor (Homo sapiens, UniProt P10275).
T1 construct: endogenous in cells; host or cells: VCaP cells
T1 sequence (P10275 1-920): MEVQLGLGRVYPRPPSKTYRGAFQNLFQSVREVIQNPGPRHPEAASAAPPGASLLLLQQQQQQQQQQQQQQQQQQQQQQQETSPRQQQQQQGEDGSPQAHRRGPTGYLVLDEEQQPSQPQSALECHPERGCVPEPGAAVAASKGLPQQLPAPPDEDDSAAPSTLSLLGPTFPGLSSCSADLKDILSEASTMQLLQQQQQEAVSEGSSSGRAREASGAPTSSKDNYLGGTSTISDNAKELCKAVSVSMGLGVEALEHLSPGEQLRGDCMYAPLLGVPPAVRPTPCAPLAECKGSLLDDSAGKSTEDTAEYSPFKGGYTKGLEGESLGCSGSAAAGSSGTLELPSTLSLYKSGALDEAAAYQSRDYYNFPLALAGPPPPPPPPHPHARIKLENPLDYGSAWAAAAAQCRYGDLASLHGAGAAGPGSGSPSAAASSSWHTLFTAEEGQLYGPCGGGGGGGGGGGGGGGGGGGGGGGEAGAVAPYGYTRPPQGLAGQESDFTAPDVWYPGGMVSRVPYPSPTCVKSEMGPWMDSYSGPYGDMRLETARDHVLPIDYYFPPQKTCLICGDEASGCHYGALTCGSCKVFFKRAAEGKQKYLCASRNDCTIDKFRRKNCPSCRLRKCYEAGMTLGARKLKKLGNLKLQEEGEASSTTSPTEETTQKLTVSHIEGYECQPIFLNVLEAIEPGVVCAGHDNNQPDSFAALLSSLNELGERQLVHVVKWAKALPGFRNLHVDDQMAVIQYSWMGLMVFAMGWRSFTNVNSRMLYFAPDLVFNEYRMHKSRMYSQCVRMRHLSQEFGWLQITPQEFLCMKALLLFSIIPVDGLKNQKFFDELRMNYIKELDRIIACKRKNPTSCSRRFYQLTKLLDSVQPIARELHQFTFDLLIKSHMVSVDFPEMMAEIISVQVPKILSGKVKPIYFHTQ
Briefly: Androgen Receptor ELISA assay (PathScan AR ELISA) in VCaP cells: AR degradation, Dmax and DC50. The assay is classed as cell-based. A digest of the protocol:
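VCaP cells in phenol red-free RPMI with 5% charcoal-stripped FBS were grown at least 3 days, then given compound as 7 half-log doses in 0.1% DMSO with 0.1 nM R1881 for 24 h. Lysates went into a sandwich AR ELISA with TMB read at 450 nm.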
For orientation: ELISA stands for enzyme-linked immunosorbent assay.

Where [1] appears, read: read-out: VCaP DC50; concentration that caused 50% Androgen Receptor degradation, VCaP cells (Table 32).
Setting [2] is: VCaP, highest percentage of Androgen Receptor degradation observed, VCaP cells (Table 32); read-out: VCaP Dmax (%).
Setting [3] is: concentration that caused 50% Androgen Receptor degradation, VCaP cells (Table 32); read-out: VCaP DC50.

Read-outs that look alike come from different tables or passages of the source.

As to `Cc1ncsc1-c1ccc([C@H](C)NC(=O)[C@@H]2C[C@@H](O)CN2C(=O)[C@@H](NC(=O)COCCCCOc2ccc(-c3ccc(N4C(=S)N(c5ccc(C#N)c(C(F)(F)F)c5)C(=O)C4(C)C)c(F)c3)cc2)C(C)(C)C)cc1` [Example 137, (2S,4R)-1-[(2S)-2-(2-{4-[4-(4-{3-[4-cyano-3-(trifluoromethyl)phenyl]-5,5-dimethyl-4-oxo-2-sulfanylideneimidazolidin-1-yl}-3-fluorophenyl)phenoxy]butoxy}acetamido)-3,3-dimethylbutanoyl]-4-hydroxy-N-[(1S)-1-[4-(4-methyl-1,3-thiazol-5-yl)phenyl]ethyl]pyrrolidine-2-carboxamide], where the note is “VCaP, read-out: VCaP Dmax (%)”, the Dmax (usually the largest share of the target that was removed) is > 71%. Further, the half-maximal degradation concentration (DC50) (in general, the concentration at which degradation of the target reaches its halfway point) under setting [1] is < 50 nM.

For `Cc1ncoc1-c1ccc([C@H](C)NC(=O)[C@@H]2C[C@@H](O)CN2C(=O)[C@@H](NC(=O)COCCCCOc2ccc(-c3ccc(N4C(=S)N(c5ccc(C#N)c(C(F)(F)F)c5)C(=O)C4(C)C)c(F)c3)cc2)C(C)(C)C)cc1` [Example 138, (2S,4R)-1-[(2S)-2-(2-{4-[4-(4-{3-[4-cyano-3-(trifluoromethyl)phenyl]-5,5-dimethyl-4-oxo-2-sulfanylideneimidazolidin-1-yl}-3-fluorophenyl)phen-oxy]butoxy}acetamido)-3,3-dimethylbutanoyl]-4-hydroxy-N-[(1S)-1-[4-(4-methyl-1,3-oxazol-5-yl)phenyl]ethyl]pyrrolidine-2-carboxamide], where the note is “VCaP, read-out: VCaP Dmax (%)”, the greatest degradation seen (Dmax) was > 71%. For the same compound, the DC50 under setting [1] was < 50 nM.

`COc1cc(-c2ccc(N3C(=S)N(c4ccc(C#N)c(C(F)(F)F)c4)C(=O)C3(C)C)cc2)ccc1OCCCCOCC(=O)N[C@H](C(=O)N1C[C@H](O)C[C@H]1C(=O)NCc1ccc(-c2scnc2C)cc1)C(C)(C)C` [Example 139, (2S,4R)-1-[(2S)-2-(2-{4-[4-(4-{3-[4-cyano-3-(trifluoromethyl)phenyl]-5,5-dimethyl-4-oxo-2-sulfanylideneimidazolidin-1-yl}phenyl)-2-methoxyphenoxy]butoxy}acetamido)-3,3-dimethylbutanoyl]-4-hydroxy-N-{[4-(4-methyl-1,3-thiazol-5-yl)phenyl]methyl}pyrrolidine-2-carboxamide]: the Dmax (VCaP, read-out: VCaP Dmax (%)) is > 71%. The DC50 under setting [1] is < 50 nM.

With `COc1cc(OCCCCOCC(=O)N[C@H](C(=O)N2C[C@H](O)C[C@H]2C(=O)NCc2ccc(-c3scnc3C)cc2)C(C)(C)C)ccc1-c1ccc(N2C(=S)N(c3ccc(C#N)c(C(F)(F)F)c3)C(=O)C2(C)C)cc1` [Example 140, (2S,4R)-1-[(2S)-2-(2-{4-[4-(4-{3-[4-cyano-3-(trifluoromethyl)phenyl]-5,5-dimethyl-4-oxo-2-sulfanylideneimidazolidin-1-yl}phenyl)-3-methoxyphenoxy]butoxy}acetamido)-3,3-dimethylbutanoyl]-4-hydroxy-N-{[4-(4-methyl-1,3-thiazol-5-yl)phenyl]methyl}pyrrolidine-2-carboxamide], for the setting “VCaP, read-out: VCaP Dmax (%)”, the Dmax was > 71%. Further, the half-maximal degradation concentration (DC50) under setting [1] is < 50 nM.

As for `Cc1ncsc1-c1ccc(CNC(=O)[C@@H]2C[C@@H](O)CN2C(=O)[C@@H](NC(=O)COCCC[C@@H](C)Oc2ccc(-c3ccc(N4C(=S)N(c5ccc(C#N)c(C(F)(F)F)c5)C(=O)C4(C)C)cc3)cc2)C(C)(C)C)cc1` [Example 141, (2S,4R)-1-[(2S)-2-(2-{[(4S)-4-[4-(4-{3-[4-cyano-3-(trifluoromethyl)phenyl]-5,5-dimethyl-4-oxo-2-sulfanylideneimidazolidin-1-yl}phenyl)phen-oxy]pentyl]oxy}acetamido)-3,3-dimethylbutanoyl]-4-hydroxy-N-{[4-(4-methyl-1,3-thiazol-5-yl)phenyl]methyl}pyrrolidine-2-carboxamide], the Dmax (VCaP, read-out: VCaP Dmax (%)) is > 71%. Also, under setting [1], the 50% degradation concentration (DC50) is < 50 nM.

Turning to `Cc1ncsc1-c1ccc(CNC(=O)[C@@H]2C[C@@H](O)CN2C(=O)[C@@H](NC(=O)COCCC[C@H](C)Oc2ccc(-c3ccc(N4C(=S)N(c5ccc(C#N)c(C(F)(F)F)c5)C(=O)C4(C)C)cc3)cc2)C(C)(C)C)cc1` [Example 142, (2S,4R)-1-[(2S)-2-(2-{[(4R)-4-[4-(4-{3-[4-cyano-3-(trifluoromethyl)phenyl]-5,5-dimethyl-4-oxo-2-sulfanylideneimidazolidin-1-yl}phenyl)phen-oxy]pentyl]oxy}acetamido)-3,3-dimethylbutanoyl]-4-hydroxy-N-{[4-(4-methyl-1,3-thiazol-5-yl)phenyl]methyl}pyrrolidine-2-carboxamide], the Dmax (VCaP, read-out: VCaP Dmax (%)) was > 71%. Besides, the DC50 under setting [1] is < 50 nM.

For the compound `Cc1ncsc1-c1ccc([C@H](C)NC(=O)[C@@H]2C[C@@H](O)CN2C(=O)[C@@H](NC(=O)COCCCCNc2ccc(-c3ccc(N4C(=S)N(c5ccc(C#N)c(C(F)(F)F)c5)C(=O)C4(C)C)cc3)cc2)C(C)(C)C)cc1` [Example 145, (2S,4R)-1-[(2S)-2-[2-(4-{[4-(4-{3-[4-cyano-3-(trifluoromethyl)phenyl]-5,5-dimethyl-4-oxo-2-sulfanylideneimidazolidin-1-yl}phenyl)phen-yl]amino}butoxy)acetamido]-3,3-dimethylbutanoyl]-4-hydroxy-N-[(1S)-1-[4-(4-methyl-1,3-thiazol-5-yl)phenyl]ethyl]pyrrolidine-2-carboxamide], under “VCaP, read-out: VCaP Dmax (%)”, the Dmax is > 71%. Under setting [1], the 50% degradation concentration (DC50) was < 50 nM.

Take `Cc1ncsc1-c1ccc(CNC(=O)[C@@H]2C[C@@H](O)CN2C(=O)[C@@H](NC(=O)COCCCCOc2ccc(-c3ccc(N4C(=S)N(c5ccc(C#N)c(C(F)(F)F)c5)C(=O)C4(C)C)cc3)c(F)c2)C(C)(C)C)cc1` [Example 149, (2S,4R)-1-[(2S)-2-(2-{4-[4-(4-{3-[4-cyano-3-(trifluoromethyl)phenyl]-5,5-dimethyl-4-oxo-2-sulfanylideneimidazolidin-1-yl}phenyl)-3-fluorophenoxy]butoxy}acetamido)-3,3-dimethylbutanoyl]-4-hydroxy-N-{[4-(4-methyl-1,3-thiazol-5-yl)phenyl]methyl}pyrrolidine-2-carboxamide]: the Dmax (VCaP, read-out: VCaP Dmax (%)) is > 71%. In addition, under setting [1], the DC50 was < 50 nM.

For `Cc1ncsc1-c1ccc(CNC(=O)[C@@H]2C[C@@H](O)CN2C(=O)[C@@H](NC(=O)COCCCCCOc2ccc(C(=O)N[C@H]3C(C)(C)[C@H](Oc4ccc(C#N)c(Cl)c4)C3(C)C)cc2)C(C)(C)C)cc1` [Example 151, (2S,4R)-1-[(2S)-3,3-dimethyl-2-(2-{[5-(4-{[trans-3-(3-chloro-4-cyanophenoxy)-2,2,4,4-tetramethylcyclobutyl]carbamoyl}phen-oxy)pentyl]oxy}acetamido)butanoyl]-4-hydroxy-N-{[4-(4-methyl-1,3-thiazol-5-yl)phenyl]methyl}pyrrolidine-2-carboxamide], the greatest degradation seen (Dmax) under setting [2] was > 71%. For the same compound, the DC50 under setting [3] was < 50 nM.

Turning to `Cc1ncoc1-c1ccc(CNC(=O)[C@@H]2C[C@@H](O)CN2C(=O)[C@@H](NC(=O)COCCCCCOc2ccc(C(=O)NC3C(C)(C)C(Oc4ccc(C#N)c(Cl)c4)C3(C)C)cc2)C(C)(C)C)cc1` (stereo partly drawn) [Example 152, (2S,4R)-1-[(2S)-3,3-dimethyl-2-(2-{[5-(4-{[trans-3-(3-chloro-4-cyanophenoxy)-2,2,4,4-tetramethylcyclobutyl]carbamoyl}phen-oxy)pentyl]oxy}acetamido)butanoyl]-4-hydroxy-N-{[4-(4-methyl-1,3-oxazol-5-yl)phenyl]methyl}pyrrolidine-2-carboxamide], under setting [2], the greatest degradation seen (Dmax) is > 71%. For the same compound, under setting [3], the DC50 is < 50 nM.

For `CC(C)(C)[C@H](NC(=O)COCCCCCOc1ccc(C(=O)N[C@H]2C(C)(C)[C@H](Oc3ccc(C#N)c(Cl)c3)C2(C)C)cc1)C(=O)N1C[C@H](O)C[C@H]1C(=O)NCc1ccc(-c2cnco2)cc1` [Example 153, (2S,4R)-1-[(2S)-3,3-dimethyl-2-(2-{[5-(4-{[trans-3-(3-chloro-4-cyanophenoxy)-2,2,4,4-tetramethylcyclobutyl]carbamoyl}phen-oxy)pentyl]oxy}acetamido)butanoyl]-4-hydroxy-N-{[4-(1,3-oxazol-5-yl)phenyl]methyl}pyrrolidine-2-carboxamide], the maximal degradation (Dmax) under setting [2] is > 71%. In addition, under setting [3], the DC50 is < 50 nM.

The values above are taken from US11427548B2 (Arvinas Operations, Inc., priority 2015, dated 2022).
